Experimental data reported in patent US3969385A, “Ethyl 10-methoxy-3,7,11-trimethyldodeca-2,4-dienoate” (Zoecon Corporation, priority 1974, dated 1976).

How the values were obtained:
Format in all cases: in vivo
[1] = test system: Greater Wax Moth (Galleria mellonella) pupae; assay: Greater Wax Moth (Galleria mellonella) pupae, retention of pupal characters (graded-response score); details: for ID50: Galleria mellonella pupae <24 h old, 1 μl acetone solution applied to mouth-parts, scored after 10 days at 31°, 50% effect level; for Galleria ID50: Table 1 summary
Procedure: Greater Wax Moth (Galleria mellonella) pupae less than 24-hours old were collected after mature larvae from a mass colony were allowed to pupate in glass tubes treated with Siliclad solution (modification of a technique described by De Wilde et al., 1968) and then freed of the cocoon with a dilute Chlorox solution. Starvation of mature larvae was employed to produce highly synchronous pupation. One microliter of acetone solution containing 100, 10, 1, 0.1, 0.01, or 0.001μg of compound was applied to the mouth-parts of each test pupa. In each test series, the control pupae were treated only with 1 microliter of acetone. Treated pupae were allowed to develop for 10 days at 31° and then scored for both retention of pupal characters and adult emergence. For the retention of pupal characters, the following scoring system was used: 0=normal adult; 1=minor pupal rudimentary mandibles only; 2=as in 1, but also pupal cuticle patches at the base of the proboscis; 3=extensive pupal cuticle formation at base of proboscis, slight pupal characters in intersegmental membranes in legs; 4=proboscis entirely pupal, larger than normal, legs with extensive pupal zones; 5=merging pupal bands on legs, specimen with only a few adult setae, essentially "a second pupa."
The graded-response score was calculated as a percentage of the maximum attainable (n×5) and plotted against the dose on semilogarithmic paper. The ID50 dose is taken from the intersection of this plotted line with the 50% effect level.

Philosamia cynthia eggs = assay: Philosamia cynthia eggs, hatch prevention; details: Table 1 summary
Procedure: Philosamia cynthia eggs less than 24-hours old were removed from the colony and placed on black electrical tape, 15 eggs per tape. One microliter of acetone solution containing […] of compound was applied to each egg. The control eggs were treated only with acetone. The eggs were kept at 28°C for 10 days at which time the number of eggs hatched was observed and plotted against the dosed on semilogarithmic paper. The ID50 dose is taken from the intersection of this plotted line with the 50% hatch prevented line.

[2] = test system: Tobacco budworm (Heliothis virescens) larvae; assay: Tobacco budworm (Heliothis virescens) larvae, diet test, morphogenetic scoring; details: for ID50: Heliothis virescens unfed first instar larvae, compound mixed in diet, 25°, 16 hr photophase; for Heliothis ID50: Table 1 summary, in diet
Procedure: Tobacco budworm (Heliothis virescens) larvae were reared in mass culture on a modified Van der Zandt artificial diet based on agar, lima beans, split peas, torula yeast plus vitamins, minerals and bacteriostatic additives. Compounds to be tested were mixed as acetone solutions with this diet while it was still warm and not yet solidified (7.5 ml. of medium in 15 ml. tubes). Unfed first instar larvae were collected from the mass rearing and distributed in the glass tubes (one larva per tube, 15 tubes per dose level). The tubes with larvae were then capped with a firm cotton plug and placed on racks in a culture room at 25° and 16 hr photophase (low intensity fluorescent light). The normal interval until pupation under these conditions was ca. 16 days.
Individual specimens were preserved in ethanol within a few days after pupation and stored until the entire series was thus preserved. The test results were then evaluated with the following scoring system: 0= normal pupa; 1=pupa of normal shape and appearance except for very minor abnormalities such as minute rudiments of larval mouthparts, larval tubercles, etc. The ultimate viability of these pupa was not investigated; 2=unviable intermediates between larvae and pupae ranging from almost perfect supernumerary larval instars (frequently with some pupal cuticle on the antennae only) to pupae with pronounced prolegs, patches of larval cuticle, etc. […] The results were added and expressed as a percentage of the possible total. ID50 doses were determined by interpolation on semilogarithmic paper. Dead larvae were generally excluded from the score, unless death was obviously a consequence of morphogenetic abnormalities and the specimens could be scored as above.

## CCOC(=O)C=C(C)C=CCC(C)CCC(OC)C(C)C (stereo not shown) [ethyl 10-methoxy-3,7,11-trimethyldodeca-2,4-dienoate]
[1]
  ID50: 0.0030 μg per pupa
  Galleria ID50: 0.0030 μg/pupa
Philosamia cynthia eggs
  Cynthia ID50: 0.000032 μg/egg
[2]
  ID50: 0.024 parts per million
  Heliothis ID50: 0.024 ppm

## CCOC(=O)C=C(C)C=CCC(C)CCCC(C)(C)OC (stereo not shown) [ethyl 11-methoxy-3,7,11-trimethyldodeca-2,4-dienoate]
[1]
  ID50: 0.180 μg per pupa
  Galleria ID50: 0.180 μg/pupa
Philosamia cynthia eggs
  Cynthia ID50: 0.00077 μg/egg
[2]
  ID50: 0.340 parts per million
  Heliothis ID50: 0.340 ppm
